Activity calls are given as the source filed them. The rule behind the calls is not given here.
How the values were obtained:
A2780 [1] = assay: Antitumor activity against human A2780 cells xenografted in nude mouse assessed as reduction in Ki67 expression in tumor tissue at 2 uM/Kg, IV once every 3 days upto 21 days relative by immuno histochemical analysis; assay type: functional, cell-based; conditions: time 21.0 day
[2] = Toxicity in nude mouse xenografted with human A2780 cells assessed as pathological damage in lung at 2 uM/Kg, IV once every 3 days upto 21 days by hematoxylin and eosin staining analysis; assay type: tissue-based; conditions: 504 h, time 21 day
[3] = AUC in mouse plasma at 5 mg/kg, iv after 0.083 to 24 hrs by LC-MS/MS analysis; assay type: ADME, organism-based; design: time lower 0.083 hrs, dose 5 mg/kg, time upper 24 hrs, route iv
[4] = Tmax in Sprague-Dawley rat plasma at 20 mg/kg, IP by LC-MS/MS analysis; assay type: ADME, organism-based
[5] = Cmax in mouse plasma at 5 mg/kg, iv after 0.083 to 24 hrs by LC-MS/MS analysis; assay type: ADME, organism-based; design: time upper 24 hrs, dose 5 mg/kg, time lower 0.083 hrs, route iv
[6] = Half life in mouse plasma at 5 mg/kg, iv by LC-MS/MS analysis; assay type: ADME, organism-based
[7] = molecular target: T1, Nicotinamide phosphoribosyltransferase (Homo sapiens, UniProt P43490); assay: (§1) Competitive binding activity at NAMPT in human A2780 cells assessed as blocking of NAMPT degradation pretreated with carfilzomib for 2 hrs followed by compound addition at 10 nM measured after 24 hrs by Western blotting analysis; assay type: cell-based
Target sequence in this assay (P43490 whole entry, looked up): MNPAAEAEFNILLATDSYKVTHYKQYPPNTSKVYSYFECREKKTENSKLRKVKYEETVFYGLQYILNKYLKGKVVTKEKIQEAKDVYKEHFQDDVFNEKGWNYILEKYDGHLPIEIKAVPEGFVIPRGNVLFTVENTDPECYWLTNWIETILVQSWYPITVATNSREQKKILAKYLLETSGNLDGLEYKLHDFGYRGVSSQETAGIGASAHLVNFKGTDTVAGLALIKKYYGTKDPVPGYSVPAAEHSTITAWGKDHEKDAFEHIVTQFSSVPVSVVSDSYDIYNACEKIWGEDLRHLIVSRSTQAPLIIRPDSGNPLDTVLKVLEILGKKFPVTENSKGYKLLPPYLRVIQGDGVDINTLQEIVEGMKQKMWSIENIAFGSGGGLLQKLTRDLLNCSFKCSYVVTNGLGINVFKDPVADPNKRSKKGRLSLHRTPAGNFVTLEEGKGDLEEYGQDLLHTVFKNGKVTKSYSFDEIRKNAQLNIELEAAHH

[8] = molecular target: T2, von Hippel-Lindau disease tumor suppressor/Nicotinamide phosphoribosyltransferase (Homo sapiens, UniProt P43490+P40337); assay: Protac activity at VHL/NAMPT in human A2780 cells assessed as degradation of NAMPT using NAM as substrate preincubated for 5 mins followed by substrate addition measured after 5 mins in presence of ATP by luminesence based microplate reader analysis; assay type: cell-based
Target sequence in this assay (P43490 whole entry): as the sequence (P43490 whole entry, looked up) above
Target sequence in this assay (P40337 whole entry): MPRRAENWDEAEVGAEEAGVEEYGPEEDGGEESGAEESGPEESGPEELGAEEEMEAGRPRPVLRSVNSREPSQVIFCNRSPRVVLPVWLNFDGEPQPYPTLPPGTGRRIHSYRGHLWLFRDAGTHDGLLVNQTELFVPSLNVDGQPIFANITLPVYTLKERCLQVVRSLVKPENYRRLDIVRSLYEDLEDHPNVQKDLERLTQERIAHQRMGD

[9] = molecular target: T1, Nicotinamide phosphoribosyltransferase; assay: Competitive binding activity at NAMPT in human A2780 cells assessed as blocking of NAMPT degradation pretreated with epoxomicin for 2 hrs followed by compound addition at 10 nM measured after 24 hrs by Western blotting analysis; assay type: cell-based
Target sequence in this assay (P43490 whole entry, looked up): as the sequence (P43490 whole entry, looked up) above

[10] = MRT in Sprague-Dawley rat plasma at 5 mg/kg, iv after 0.083 to 24 hrs by LC-MS/MS analysis; assay type: ADME, organism-based; conditions: time 0.083-24 hrs
[11] = molecular target: T1, Nicotinamide phosphoribosyltransferase; assay: as §1, with “100 uM of (2S,4R)-1-((S)-2-acetamido-3,3-dimethylbutanoyl)-4-hydroxy-N-((S)-1-(4-(4-methylthiazol-5-yl)phenyl)ethyl)pyrrolidine-2-carboxamide” for “carfilzomib”; assay type: cell-based
Target sequence in this assay (P43490 whole entry, looked up): as above

[12] = Toxicity in nude mouse xenografted with human A2780 cells assessed as pathological damage in spleen at 2 uM/Kg, IV once every 3 days upto 21 days by hematoxylin and eosin staining analysis; assay type: tissue-based; conditions: 504 h, time 21 day
[13] = molecular target: T2, von Hippel-Lindau disease tumor suppressor/Nicotinamide phosphoribosyltransferase; assay: Protac activity at VHL/NAMPT in human A2780 cells assessed as reduction of NAMPT protein level at greater than 0.37 uM measured after 24 hrs by Western blotting analysis; assay type: cell-based
Target sequence in this assay (P40337 whole entry, looked up): as the sequence (P40337 whole entry) above
Target sequence in this assay (P43490 whole entry, looked up): as the sequence (P43490 whole entry, looked up) above

[14] = Half life in Sprague-Dawley rat plasma at 5 mg/kg, iv by LC-MS/MS analysis; assay type: ADME, organism-based
[15] = Half life in Sprague-Dawley rat plasma at 20 mg/kg, IP by LC-MS/MS analysis; assay type: ADME, organism-based
[16] = Toxicity in nude mouse xenografted with human A2780 cells assessed as pathological damage in heart at 2 uM/Kg, IV once every 3 days upto 21 days by hematoxylin and eosin staining analysis; assay type: tissue-based; conditions: 504 h, time 21 day
[17] = Tmax in Sprague-Dawley rat plasma at 5 mg/kg, iv by LC-MS/MS analysis; assay type: ADME, organism-based; conditions: time 0.083-24 hrs
[18] = molecular target: von Hippel-Lindau disease tumor suppressor (Homo sapiens) (UniProt P40337); assay: Binding affinity to VHL in human A2780 cells incubated at 10 uM measured from 63 to 75 degreeC for 7 hrs by cellular thermal shift assay; assay type: cell-based
von Hippel-Lindau disease tumor suppressor (Homo sapiens), sequence (P40337 whole entry, looked up): as the sequence (P40337 whole entry) above

[19] = Cmax in Sprague-Dawley rat plasma at 20 mg/kg, IP after 0.083 to 24 hrs by LC-MS/MS analysis; assay type: ADME, organism-based; design: time lower 0.083 hrs, dose 20 mg/kg, time upper 24 hrs, route ip
[20] = Cmax in mouse plasma at 20 mg/kg, IP after 0.083 to 24 hrs by LC-MS/MS analysis; assay type: ADME, organism-based; design: time upper 24 hrs, time lower 0.083 hrs, dose 20 mg/kg, route ip
[21] = molecular target: T1, Nicotinamide phosphoribosyltransferase; assay: Competitive binding activity at NAMPT in human A2780 cells assessed as blocking of NAMPT degradation pretreated with MG132 for 2 hrs followed by compound addition at 10 nM measured after 24 hrs by Western blotting analysis; assay type: cell-based
Target sequence in this assay (P43490 whole entry, looked up): as the sequence (P43490 whole entry, looked up) above

[22] = AUC in Sprague-Dawley rat plasma at 20 mg/kg, IP after 0.083 to 24 hrs by LC-MS/MS analysis; assay type: ADME, organism-based; design: dose 20 mg/kg, time 0.083-24 hrs, route ip
[23] = molecular target: T2, von Hippel-Lindau disease tumor suppressor/Nicotinamide phosphoribosyltransferase; assay: Protac activity at VHL/NAMPT in human A2780 cells assessed as induction of NAMPT degradation measured at 10 nM; assay type: cell-based; conditions: time <= 24.0 hrs, TDE = time-dependent effect
Target sequence in this assay (P40337 whole entry, looked up): as the sequence (P40337 whole entry) above
Target sequence in this assay (P43490 whole entry, looked up): as the sequence (P43490 whole entry, looked up) above

[24] = Toxicity in nude mouse xenografted with human A2780 cells assessed as loss in body weight at 2 uM/Kg, IV once every 3 days upto 21 days; conditions: 504 h, time 21 day
[25] = Toxicity in nude mouse xenografted with human A2780 cells assessed as pathological damage in liver at 2 uM/Kg, IV once every 3 days upto 21 days by hematoxylin and eosin staining analysis; assay type: tissue-based; conditions: 504 h, time 21 day
[26] = Cmax in Sprague-Dawley rat plasma at 5 mg/kg, iv after 0.083 to 24 hrs by LC-MS/MS analysis; assay type: ADME, organism-based; design: dose 5 mg/kg, time upper 24 hrs, time lower 0.083 hrs, route iv
[27] = molecular target: T1, Nicotinamide phosphoribosyltransferase; assay: Binding affinity to NAMPT in human A2780 cells incubated at 10 uM measured from 63 to 75 degreeC for 7 hrs by cellular thermal shift assay; assay type: cell-based
Target sequence in this assay (P43490 whole entry, looked up): as above

[28] = Retinal toxicity in nude mouse xenografted with human A2780 cells at 2 uM/Kg, IV once every 3 days upto 21 days by microscopic analysis; conditions: 504 h, time 21 day
[29] = molecular target: T1, Nicotinamide phosphoribosyltransferase; assay: Competitive binding activity at NAMPT in human A2780 cells assessed as blocking of NAMPT degradation pretreated with 200 nM of 1-(4-(piperidin-1-ylsulfonyl)phenyl)-3-(pyridin-3-ylmethyl)thiourea for 2 hrs followed by compound addition at 10 nM measured after 24 hrs by Western blotting analysis; assay type: cell-based
Target sequence in this assay (P43490 whole entry, looked up): as above

[30] = molecular target: T2, von Hippel-Lindau disease tumor suppressor/Nicotinamide phosphoribosyltransferase; assay: Protac activity at VHL/NAMPT in human A2780 cells assessed as reduction of NAMPT protein level at 10 nM measured after 24 hrs by Western blotting analysis; assay type: cell-based
Target sequence in this assay (P40337 whole entry, looked up): as the sequence (P40337 whole entry) above
Target sequence in this assay (P43490 whole entry, looked up): as the sequence (P43490 whole entry, looked up) above

[31] = Toxicity in nude mouse xenografted with human A2780 cells assessed as pathological damage in kidney at 2 uM/Kg, IV once every 3 days upto 21 days by hematoxylin and eosin staining analysis; assay type: tissue-based; conditions: 504 h, time 21 day
[32] = molecular target: T2, von Hippel-Lindau disease tumor suppressor/Nicotinamide phosphoribosyltransferase; assay: Protac activity at VHL/NAMPT in human A2780 cells assessed as induction of NAMPT degradation measured at 0.005 to 10 microM after 24 hrs by Western blotting analysis; assay type: cell-based; conditions: dose 0.005-10 µM
Target sequence in this assay (P40337 whole entry, looked up): as the sequence (P40337 whole entry) above
Target sequence in this assay (P43490 whole entry, looked up): as the sequence (P43490 whole entry, looked up) above

[33] = molecular target: T1, Nicotinamide phosphoribosyltransferase; assay: Inhibition of NAMPT (unknown origin) using NAM as substrate preincubated for 5 mins followed by substrate addition measured after 15 mins in presence of ATP by fluorescence based microplate reader analysis
Target sequence in this assay (P43490 whole entry): as the sequence (P43490 whole entry, looked up) above

[34] = molecular target: T1, Nicotinamide phosphoribosyltransferase; assay: Competitive binding activity at NAMPT in human A2780 cells assessed as blocking of NAMPT degradation pretreated with MLN4924 for 2 hrs followed by compound addition at 10 nM measured after 24 hrs by Western blotting analysis; assay type: cell-based
A2780 [35] = assay: Antitumor activity against human A2780 cells xenografted in nude mouse assessed as tumor growth inhibition at 2 uM/Kg, IV once every 3 days upto 21 days relative to control; assay type: functional; conditions: time 21 day, at 2 µmol/kg
A2780 [36] = assay: Downregulation of NAD+ in human A2780 cells treated upto 1000 nM for 24 hrs by chromogen based assay; assay type: functional, cell-based
[37] = AUC in Sprague-Dawley rat plasma at 5 mg/kg, iv after 0.083 to 24 hrs by LC-MS/MS analysis; assay type: ADME, organism-based; design: dose 5 mg/kg, time upper 24 hrs, time lower 0.083 hrs, route iv
[38] = MRT in Sprague-Dawley rat plasma at 20 mg/kg, IP after 0.083 to 24 hrs by LC-MS/MS analysis; assay type: ADME, organism-based; conditions: time 0.083-24 hrs
CT26 = assay: Antiproliferative activity against mouse CT26 cells; assay type: functional, cell-based
A2780 [39] = assay: Antiproliferative activity against human A2780 cells incubated for 72 hrs in carbon-dioxide atmosphere measured by cell counting kit-8 method; assay type: functional, cell-based; conditions: A2780, 72 h
A2780 [40] = assay: Antitumor activity against human A2780 cells xenografted in nude mouse assessed as necrotic tumor cells at 2 uM/Kg, IV once every 3 days upto 21 days relative by hematoxylin and eosin staining analysis; assay type: functional, cell-based; conditions: time 21.0 day
A2780 [41] = assay: Antitumor activity against human A2780 cells xenografted in nude mouse assessed as reduction in NAMPT protein level in tumor tissue at 2 uM/Kg, IV after 3 days by immuno histochemical analysis; assay type: functional, cell-based; conditions: time 3.0 day

AUC [3]: 477 ng·h/mL
Tmax [4]: 5 h
Cmax [5]: 1080 ng/mL
half-life [6]: 3.72 h
Activity [7]: Active
DC50 [8]: < 0.17 nM
Activity [9]: Active
MRT [10]: 4.45 h
Activity [11]: Active
Activity [13]: inactive
half-life [14]: 6.53 h
half-life [15]: 5.41 h
Tmax [17]: 4.8 min
Activity [18]: Active
Cmax [19]: 250 ng/mL
Cmax [20]: 417 ng/mL
Activity [21]: Active
AUC [22]: 1740 ng·h/mL
Activity [23]: Tde
Cmax [26]: 3190 ng/mL
Activity [27]: Active
Activity [29]: Active
Activity [30]: Active
Activity [32]: Dose-Dependent Effect
IC50 [33]: 150 nM
Activity [34]: Active
AUC [37]: 1310 ng·h/mL
MRT [38]: 7.51 h
IC50 (CT26): 670 nM
IC50 (A2780 [39]): 1.5 nM
SMILES: Cc1ncsc1-c1ccc([C@H](C)NC(=O)[C@@H]2C[C@@H](O)CN2C(=O)[C@@H](NC(=O)CCCCCCCCN2CCN(S(=O)(=O)c3ccc(NC(=O)NCc4cccnc4)cc3)CC2)C(C)(C)C)cc1
Activity (A2780 [1]): Active
Activity [2]: Non-Toxic
Activity [12]: Non-Toxic
Activity [16]: Non-Toxic
Activity [24]: Non-Toxic
Activity [25]: Non-Toxic
Activity [28]: Non-Toxic
Activity [31]: Non-Toxic
TGI (A2780 [35]): 88.1%
Activity (A2780 [36]): Active
Activity (A2780 [40]): Active
Activity (A2780 [41]): Active

Source: ChEMBL document CHEMBL5316285 (J Med Chem, 2023)
